Like-named read-outs stand apart in the source and are kept apart here. Values belong to the molecule of their own block, whether it stands above or below them.
Legend:
[1] = Pharmacokinetic study of 435(S) and other representative compounds in chimps after oral dosing (Example 40); format: in vivo; conditions: species named in label measured in plasma
Procedure: 435(S) and representative compounds 121(S), 137(S), 421(S) and 437(S) were separately dissolved in warm (65° C.) water at a concentration [[of 10 mg/mL]]. The same protocol described for Example 39 was then followed for each representative compound.

[2] = Pharmacokinetic study of pentoxifylline and Compound 435(S) in chimps after oral dosing (Example 38); format: in vivo; conditions: in vivo, po, 75 mg
Procedure: Pentoxifylline and Compound 435(S) were separately dissolved in warm (65° C.) saline at a concentration at 10 mg/mL. A 1:1 mixture of the two compounds was then prepared containing a final concentration of 5 mg/mL of each compound and the mixture was then sterile filtered through a 0.2-μm filter.
Two chimps (one male and one female) were used in each of the oral and intravenous studies. Animals were fasted overnight prior to administration of compounds. All animals were sedated with ketamine (approximately 10 mg/kg) and/or telazol (approximately 5 mg/kg) prior to dosing. Intravenous administration was achieved by IV infusion of 75 mg of each compound (15 mL total dosing solution) over 10 minutes. Oral administration was achieved by oral gavage of a single 75 mg dose of each compound (15 mL total dosing solution). Blood samples (6 mL) were collected from the dosed chimps at various times prior to and after dosing. For intravenous administrations blood samples were collected at 0 min (preinfusion), 5 min, 9.5 min (immediately before the end of the infusion), then 6, 15, 30 and 45 min, and 1, 2, 4, 6, 8, 10 and 12 hr after the infusion is stopped. For oral administrations, blood samples were collected at 0 min (predose), 15 and 30 min, and 1, 1.5, 2, 4, 6, 8, 10 and 12 hr postdose.
Blood samples were placed in tubes containing sodium heparin, mixed and stored on ice until centrifuged. Within 30 minutes of collection, plasma was isolated by centrifuging the blood samples and removing an aliquot (200 μL) of the resulting plasma. Each 200-μL aliquot of plasma was mixed with 400 μL acetonitrile and stored at −70° C. until further analysis by LC-MS/MS using an Applied Bio-systems API 4000 mass spectrometer.
The analysis of all samples by LC-MS/MS was performed as described above for the rat plasma samples in Example 37.

[3] = Pharmacokinetic study in rats of (S)-M1 and Compound 435(S) after intravenous dosing (Example 37); format: in vivo, male Sprague-Dawley rats; conditions: intravenous bolus single 5 mg/kg dose of 1:1 combination of (S)-M1 and 435(S), species named in label measured in plasma
Procedure: (§1) (S)-M1 and Compound 435(S) (a deuterated form of (S)-M1) were separately dissolved in saline at a concentration of 10 mg/mL. A 1:1 mixture of the two compounds was then prepared containing a final concentration of 5 mg/mL of each compound, which was used for intravenous administration. For oral administration the mixture was further diluted in saline to a final concentration of 1 mg/mL for each compound.
(§2) Three male Sprague-Dawley rats were used in each of the oral and intravenous studies. Animals were fasted overnight prior to administration of compounds. Intravenous administration was achieved by bolus injection of a single 5 mg/kg dose of the 1:1 combination into the cannulated jugular vein of the rats. Cannulation was achieved the day prior to dosing on rats that had been placed under anesthesia using ketamine (IM 30 mg/kg). Oral administration was achieved by oral gavage of a single 5 mg/kg dose. Blood samples (250 μL) were collected from the dosed rats at various times post-dosing (2 min, 5 min, 10 min, 20 min, 30 min, 1 hr, 2 hr, 3 hr, 4 hr, 5 hr, 6 hr) by retro-orbital sampling of the rats temporarily anesthetized with isoflurane. Blood samples were placed in tubes containing K2-EDTA and stored on ice until centrifuged. Within 30 minutes of collection, plasma was isolated by centrifugation. A 100-μL aliquot was removed, mixed with 200 μL of acetonitrile and stored at −20° C. until further analysis by LC-MS/MS using an Applied Bio-systems API 4000 mass spectrometer.
(§3) Samples were analyzed for the presence of the administered compound, the corresponding ketone (pentoxifylline and Compound 409) and the corresponding M5 metabolite. Samples (10 μL) were injected into a Zorbax SB-C8 (Rapid Resolution) column (2.1×30 mm, 3.5 μm). The initial mobile phase condition was 100% A (10 mM ammonium acetate in water) and 0% B (methanol) with a flow rate at 0.5 mL/min. Mobile phase B was allowed to reach 55% in 3 minutes and from 55% to 90% in 1 minute before ramping back to 0% in another minute. The overall run time was 5 minutes. For pentoxifylline and its M1 and M5 metabolites, the precursor/product ion pairs were set at m/z 281/193 (M1), m/z 279/181 (pentoxifylline), and m/z 267/221 (M5).
(§4) For Compound 435(S) and Compound 409 more than one ion pair was set up for to detect species that arose from loss of deuterium. […] This loss of deuterium appears to occur both in vivo and ex vivo by an unknown mechanism. The addition of acetonitrile to serum samples was used to stop any additional ex vivo deuterium loss prior to analysis. Typically, no more than 2 deuterium atoms were replaced by hydrogen. For Compound 435(S), there is a deuterium at the methinyl position which was lost upon oxidation to the keto-compound 409. Reduction of 409 to an M1 metabolite introduced a proton at the methinyl position. When serum from animals dosed with 435(S) were analyzed to quantitate administered compound and metabolites, compound species were included with one and two less side chain deuteriums in the total amounts (referred to hereinafter as the “−1D” and the “−2D” species). Thus, for Compound 435(S) and Compound 409 separate ion pairs were set up to detect the compound and its corresponding −1D and −2D species. For Compound 435(S) three ion pairs were detected: m/z 291/197, 290/197, and […]. For Compound 409 ion pairs of m/z 288/186, 287/186 and 286/186 were monitored. Inclusion of −1D and −2D species in the measurements of Compound 409 and Compound 435(S) more accurately quantitates the total active species and is reasonable based on what is known about the metabolism and activities of pentoxifylline and its M-1 metabolites. Increased plasma exposure to Compound 409 or any M-1 metabolites of 409 would be desirable. This includes the −1D and −2D species.
(§5) [drawing 78] which has no deuterium on its acid side chain, only one ion pair was used at m/z 271/225. The internal standard for the analysis was indiplon.

[4] = Pharmacokinetic study in rats of (S)-M1 and Compound 435(S) after oral dosing (Example 37); format: in vivo, male Sprague-Dawley rats; conditions: oral gavage single 5 mg/kg dose, 1:1 mixture of (S)-M1 and 435(S), species named in label measured in plasma, −1D and −2D species included
Procedure: as §1, §2, §3, §4, §5

[5] = Pharmacokinetic study of pentoxifylline and Compound 435(S) in chimps after oral dosing (Example 39); format: in vivo; conditions: oral gavage 65 mg each of pentoxifylline and 435(S) in water, species named in label measured in plasma
Procedure: Pentoxifylline and Compound 435(S) were tested according to a protocol similar to the Oral Dosing protocol followed in Example 38, except that (a) the compounds were separately dissolved in water rather than saline; (b) the mixture of the two compounds was not sterile filtered; and (c) oral administration was achieved by oral gavage of a single 65 mg dose of each compound (13 mL total dosing solution).

in vivo = test: in vivo; design: species or system male beagle dogs; conditions: dog, po, 2.5 mg/kg
Procedure: Metabolism of the title compounds were studied following oral administration to male beagle dogs. Blood samples were removed from dosed dogs at various time points and plasma isolated therefrom. The plasma samples were used for the determination of plasma drug levels by LC-MS/MS (liquid chromatography with tandem mass spectrometry) for estimating pharmacokinetic parameters.
Compound 409 and pentoxifylline were dissolved separately in saline to a concentration of 4 mg/mL. A 1:1 (v/v) mixture of the two solutions was prepared to yield a solution having a final concentration of 2 mg/mL of both Compound 409 and pentoxifylline.
Two male beagle dogs were fasted overnight and then orally dosed via gavage with 2.5 mg/kg of Compound 409 and pentoxifylline using the mixture described above. Blood samples (1.5-2 mL) were collected via the femoral vein at 0 min (pre-dose), 15 min, 30 min, 45 min, 1 hr, 1.5 hr, 2 hr, 3 hr, 4 hr, 6 hr, 8 hr, 10 hr, 12 hr, 16 hr and 24 hr post-dose. Blood was stored on ice prior to centrifugation to obtain plasma samples. Centrifugation took place within 1 hour of blood collection to harvest plasma (maximum volume). The plasma was decanted immediately and frozen/stored at −70° C. until analysis.

[6] = female, plasma, po, 65 mg, Table 17 iii): female chimp, 435(S) and 421(S), read-out: AUC0-12 Female
[7] = male, plasma, po, 65 mg, Table 17 iii): male chimp, 435(S) and 421(S), read-out: AUC0-12 Male
[8] = female, plasma, po, 65 mg, Table 17 iv): female chimp, 435(S) and 437(S), read-out: AUC0-12 Female

Molecule: [2H]C([2H])([2H])[C@H](O)C([2H])([2H])CCCn1c(=O)c2c(ncn2C)n(C)c1=O [Compound 121(S), S-1-(4,4,6,6,6-d5-5-Hydroxyhexyl)-3,7-dimethyl-1H-purine-2,6(3H,7H)-dione]
- AUC(0-t) ([1]; female, plasma, po, 65 mg, Table 17 i): female chimp, 435(S) and 121(S), read-out: AUC0-12 Female): 105 ng·h/mL
- AUC(0-t) ([1]; male, plasma, po, 65 mg, Table 17 i): male chimp, 435(S) and 121(S), read-out: AUC0-12 Male): 304 ng·h/mL

Molecule: [2H]C([2H])([2H])[C@]([2H])(O)C([2H])([2H])CCCn1c(=O)c2c(ncn2C)n(C)c1=O [Compound 137(S), (S)-1-(4,4,5,6,6,6-d6-5-Hydroxyhexyl)-3,7-dimethyl-1H-purine-2,6(3H,7H)-dione]
- AUC(0-t) ([1]; female, plasma, po, 65 mg, Table 17 ii): female chimp, 435(S) and 137(S), read-out: AUC0-12 Female): 163 ng·h/mL
- AUC(0-t) ([1]; male, plasma, po, 65 mg, Table 17 ii): male chimp, 435(S) and 137(S), read-out: AUC0-12 Male): 63 ng·h/mL

Molecule: [2H]c1nc2c(c(=O)n(CCCC([2H])([2H])[C@@H](O)C([2H])([2H])[2H])c(=O)n2C)n1C [Compound 421(S), (S)-1-(4,4,6,6,6-d5-5-hydroxyhexyl)-3,7-dimethyl-8-d-1H-purine-2,6(3H,7H)-dione]
- AUC(0-t) [1, 6]: 634 ng·h/mL
- AUC(0-t) [1, 7]: 743 ng·h/mL

Molecule: [2H]c1nc2c(c(=O)n(CCCC([2H])([2H])[C@@]([2H])(O)C([2H])([2H])[2H])c(=O)n2C)n1C [Compound 437(S), (S)-8-d1-1-(4,4,5,6,6,6-d6-5-Hydroxyhexyl)-3,7-dimethyl-1H-purine-2,6(3H,7H)-dione]
- AUC(0-t) [1, 8]: 1180 ng·h/mL
- AUC(0-t) ([1]; male, plasma, po, 65 mg, Table 17 iv): male chimp, 435(S) and 437(S), read-out: AUC0-12 Male): 757 ng·h/mL

Molecule: pentoxifylline [reference compound]
- Ave. AUC (in vivo): 448 ng·h/mL
- Ave. Cmax (in vivo): 784 ng/mL

Continued, in another order:

- AUC0-∞ [3]: 1795 ± 521 ng·h/mL
- AUC0-∞ [4]: 2985 ± 601 ng·h/mL
- AUC0-12 Female ([1]; Table 17 i): female chimp, 435(S) and 121(S)): 653 ng·h/mL
- AUC0-12 Male ([1]; Table 17 i): male chimp, 435(S) and 121(S)): 630 ng·h/mL
- AUC0-12 Female ([1]; Table 17 ii): female chimp, 435(S) and 137(S)): 635 ng·h/mL
- AUC0-12 Male ([1]; Table 17 ii): male chimp, 435(S) and 137(S)): 539 ng·h/mL
Molecule: Cn1cnc2c1c(=O)n(CCCC(=O)O)c(=O)n2C [Compound M5, reference compound]
- AUC0-∞ Female [2]: 1868 ng·h/mL
- AUC0-∞ Male [2]: 1456 ng·h/mL
- AUC0-12 Female ([5]; female chimp): 811 ng·h/mL
- AUC0-12 Male ([5]; male chimp): 817 ng·h/mL

- AUC(0-t) [1, 6]: 350 ng·h/mL
- AUC(0-t) [1, 8]: 416 ng·h/mL
- AUC(0-t) [1, 7]: 447 ng·h/mL
Molecule: [2H]c1nc2c(c(=O)n(CCCC(=O)O)c(=O)n2C)n1C [Deuterated M5 (M5b)]

Reference: patent US8263601B2, “Deuterium substituted xanthine derivatives” (CoNCERT Pharmaceuticals, Inc., priority 2009, dated 2012)
